Reference: US20210221848A1, “POLYMYXIN DERIVATIVES AND THEIR USE IN COMBINATION THERAPY TOGETHER WITH DIFFERENT ANTIBIOTICS” (priority 2014, published 2021)
Where two headings read alike, the source gives them in different places.

Key:
[1] = test system: A. baumanii strains with elevated MICs to Polymyxin B; experiment: MIC against strains with elevated MICs to Polymyxin B; type: cell-based, Acinetobacter baumannii; details: Table 6D; for MIC A. baumannii 053: strain 053, elevated MIC to Polymyxin B; for MIC A. baumannii 056: strain 056, elevated MIC to Polymyxin B; for MIC A. baumannii 068: strain 068, elevated MIC to Polymyxin B; for MIC A. baumannii 070: strain 070, elevated MIC to Polymyxin B
Summary of the method: (§1)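 Duplicate runs; >2-fold disagreement = invalid, <2-fold = lower value kept. Inoculum: colonies (18-24 h Mueller-Hinton agar) suspended directly to 0.5 McFarland. Multiple tests → modal MIC.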

[2] = test system: P. aeruginosa strains with elevated MICs to Polymyxin B; experiment: as above; type: cell-based, Pseudomonas aeruginosa; details: Table 6D; for MIC P. aeruginosa 065: strain 065, elevated MIC to Polymyxin B; for MIC P. aeruginosa 066: strain 066, elevated MIC to Polymyxin B; for MIC P. aeruginosa 067: strain 067, elevated MIC to Polymyxin B
Summary of the method: as §1

[3] = test system: K. pneumoniae
[4] = test system: A. baumannii
[5] = test system: E. coli strains with elevated MICs to Polymyxin B; experiment: MIC against strains with elevated MICs to Polymyxin B; type: cell-based, Escherichia coli; details: Table 6D; for MIC E. coli 058: strain 058, elevated MIC to Polymyxin B; for MIC E. coli 059: strain 059, elevated MIC to Polymyxin B; for MIC E. coli 060: strain 060, elevated MIC to Polymyxin B; for MIC E. coli 061: strain 061, elevated MIC to Polymyxin B
Summary of the method: as §1

[6] = test system: Pseudomonas aeruginosa ATCC 27853; type: in vivo; details: mouse lungs, P. aeruginosa ATCC 27853, SC at 2, 6 and 10 h post-infection, 16 h infection model, 17.2 mg/kg/dose free base
Procedure: Groups of 7 male neutropenic specific-pathogen-free CD-1 mice weighing 21.5-27.5 g were used. On Day 0, animals were infected with 0.04 mL inoculum by intranasal instillation into mouse nostrils and were kept in an upright position on a string rack for ˜10 min post-infection. […] At 2 h, the CFU count was determined from 3 mice and the remaining mice (7 per test compound groups) were treated with a subcutaneous injection of the drug at +2, 6 and 10 hr post-infection. Test compounds and the comparator polymyxin B were administered at four concentrations (2.6, 8.6, 17.2 and 25.8 mg/kg free base). The vehicle control group (7 mice) was treated with 0.9% saline for injection at 2, 6 and 10 h post-infection.
(§2) Sixteen hours after infection, the mice were euthanized humanely. The lungs of each animal were harvested, homogenized and quantitatively cultured onto CLED agar for CFU determination. Decrease of the total CFU compared to control counts at 16 h post-infection was determined for each dose group.
The in vivo efficacy of 4 compounds of the invention (D25, D36, D42 and D50) was evaluated in a mouse lung infection model of P. aeruginosa ATCC 27853. The model was setup as described above with the exception that groups of up to 8 mice were inoculated through intranasal instillation of ˜2.5×10^6 CFUs of P. aeruginosa isolate ATCC 27853 (1.0×10^5 CFU/lung). Test compounds were administered at two concentrations (equivalent to 4.3 and 17.2 mg/kg free base). Three dose levels of polymyxin B sulfate were used as comparator (equivalent to 4.3, 8.6 and 17.2 mg/kg free base).

[7] = test system: P. aeruginosa
[8] = test system: E. coli
[9] = test system: K. pneumoniae strains with elevated MICs to Polymyxin B; experiment: MIC against strains with elevated MICs to Polymyxin B; type: cell-based, Klebsiella pneumoniae; details: Table 6D; for MIC K. pneumoniae 062: strain 062, elevated MIC to Polymyxin B; for MIC K. pneumoniae 063: strain 063, elevated MIC to Polymyxin B; for MIC K. pneumoniae 064: strain 064, elevated MIC to Polymyxin B; for MIC K. pneumoniae 655: strain 655, elevated MIC to Polymyxin B
Summary of the method: as §1

[10] = test system: P. aeruginosa; experiment: MIC in 1:1 (wt:wt) combination with Rifampicin; type: cell-based, Pseudomonas aeruginosa; details: 1:1 (wt:wt) with Rifampicin, total drug concentration
Procedure: (§3) The inoculum was prepared by making a direct suspension of isolated colonies (selected from an 18-24 hour Mueller-Hinton agar plate) adjusted to the 0.5 McFarland standard. […] The assays were performed in duplicate. […] In cases where the duplicate values varied by less than 2-fold, the lower of the two values is reported. If a variation of greater than 2-fold was observed, the assay was considered non-valid. Several of the compounds were subjected to multiple tests, and where this is the case, the MIC reflects the modal value obtained.
(§4) MIC values (microgram/mL) refer to the total drug concentration (i.e. test agent plus Rifampicin).

[11] = test system: Acinetobacter baumannii NCTC 13301; details: for Mean log10 CFU reduction vs. control: mouse lungs, A. baumannii NCTC 13301, SC at 2, 6 and 10 h post-infection, 16 h infection model
Procedure: On Day 0, animals were infected with 0.04 mL inoculum by intranasal instillation into mouse nostrils and were kept in an upright position on a string rack for ˜10 min post-infection. […] The vehicle control group (7 mice) was treated with 0.9% saline for injection at 2, 6 and 10 h post-infection.
as §2

[12] = test system: A. baumannii; experiment: MIC in 1:1 (wt:wt) combination with Rifampicin; type: cell-based, Acinetobacter baumannii; details: 1:1 (wt:wt) with Rifampicin, total drug concentration
Procedure: as §3, §4

[13] = test system: K. pneumoniae; experiment: MIC in 1:1 (wt:wt) combination with Rifampicin; type: cell-based, Klebsiella pneumoniae; details: 1:1 (wt:wt) with Rifampicin, total drug concentration
Procedure: as §3, §4

[14] = test system: E. coli; experiment: MIC in 1:1 (wt:wt) combination with Rifampicin; type: cell-based, Escherichia coli; details: 1:1 (wt:wt) with Rifampicin, total drug concentration
Procedure: as §3, §4

[15] = test system: Acinetobacter baumannii NCTC 13301; details: mouse thigh, 16 h model
[16] = absence of a second agent, Table 6B

3(S)-3-aminomethyl-5- methyl hexanoyl L- Thr-L-Dap-polymyxin B heptapeptide [Example D42]
MIC A. baumannii 053 [1]: >256 micrograms/mL
MIC A. baumannii 056 [1]: 256 micrograms/mL
MIC A. baumannii 068 [1]: 16 micrograms/mL
MIC A. baumannii 070 [1]: 128 micrograms/mL
MIC P. aeruginosa 065 [2]: 4 micrograms/mL
MIC P. aeruginosa 066 [2]: 32 micrograms/mL
MIC P. aeruginosa 067 [2]: >256 micrograms/mL
MIC, K. pneumoniae ATCC 4352 [3, 16]: 0.125 micrograms/mL
MIC, K. pneumoniae ATCC BAA-2146 [3, 16]: 0.5 micrograms/mL
MIC, A. baumannii ATCC BAA-747 [4, 16]: 0.25 micrograms/mL
MIC, A. baumannii NCTC 13424 [4, 16]: 0.5 micrograms/mL
MIC E. coli 058 [5]: 8 micrograms/mL
MIC E. coli 059 [5]: 16 micrograms/mL
MIC E. coli 060 [5]: 16 micrograms/mL
MIC E. coli 061 [5]: 32 micrograms/mL
Mean log10 CFU reduction vs. control [6]: 5.34 log10 CFU
MIC, P. aeruginosa ATCC 27853 [7, 16]: 0.25 micrograms/mL
MIC, P. aeruginosa CCUG 59347 [7, 16]: 0.5 micrograms/mL
MIC, E. coli ATCC 25922 [8, 16]: 0.25 micrograms/mL
MIC, E. coli NCTC 13441 [8, 16]: 0.25 micrograms/mL
MIC K. pneumoniae 062 [9]: >256 micrograms/mL
MIC K. pneumoniae 063 [9]: 64 micrograms/mL
MIC K. pneumoniae 064 [9]: 16 micrograms/mL
MIC K. pneumoniae 655 [9]: 64 micrograms/mL

(trans-5-(isobutyl- piperidine)-3- carbonyl L-Thr-L- Dap-polymyxin B heptapeptide [Example D65]
MIC in 1:1 combination with rifampicin, P. aeruginosa 063 ([10]; P. aeruginosa 063): 16 microgram/mL
MIC in 1:1 combination with rifampicin, P. aeruginosa 068 ([10]; P. aeruginosa 068): 1 microgram/mL
efficacy compared with polymyxin B ([11]; mouse lung, all doses (2.6, 8.6, 17.2 and 25.8 mg/kg free base), SC at 2, 6 and 10 h, 16 h): greater efficacy than observed with the equivalent dose of polymyxin B
Mean log10 CFU reduction vs. control ([11]; 2.6 mg/kg/dose free base): 1.07 log10 CFU
Mean log10 CFU reduction vs. control ([11]; 8.6 mg/kg/dose free base): 1.91 log10 CFU
Mean log10 CFU reduction vs. control ([11]; 17.2 mg/kg/dose free base): 2.89 log10 CFU
Mean log10 CFU reduction vs. control ([11]; 25.8 mg/kg/dose free base): 8.15 log10 CFU
MIC A. baumannii 053 [1]: 16 micrograms/mL
MIC A. baumannii 056 [1]: 1 micrograms/mL
MIC A. baumannii 068 [1]: 2 micrograms/mL
MIC A. baumannii 070 [1]: 4 micrograms/mL
MIC P. aeruginosa 065 [2]: 2 micrograms/mL
MIC P. aeruginosa 066 [2]: 1 micrograms/mL
MIC P. aeruginosa 067 [2]: 64 micrograms/mL
MIC, K. pneumoniae ATCC 4352 ([3]; sole activity, Table 6C): 0.03 micrograms/mL
MIC, K. pneumoniae ATCC BAA-2146 ([3]; sole activity, Table 6C): 0.125 micrograms/mL
MIC in 1:1 combination with rifampicin, A. baumannii 053 ([12]; A. baumannii 053): ≤0.5 microgram/mL
MIC in 1:1 combination with rifampicin, A. baumannii 056 ([12]; A. baumannii 056): ≤0.5 microgram/mL
MIC in 1:1 combination with rifampicin, K. pneumoniae 062 ([13]; K. pneumoniae 062): 1 microgram/mL
MIC in 1:1 combination with rifampicin, K. pneumoniae CCUG 59348 ([13]; K. pneumoniae CCUG 59348): 1 microgram/mL
MIC, A. baumannii ATCC BAA-747 ([4]; sole activity, Table 6C): 0.06 micrograms/mL
MIC, A. baumannii NCTC 13424 ([4]; sole activity, Table 6C): 0.125 micrograms/mL
MIC E. coli 058 [5]: 1 micrograms/mL
MIC E. coli 059 [5]: 2 micrograms/mL
MIC E. coli 060 [5]: 1 micrograms/mL
MIC E. coli 061 [5]: 2 micrograms/mL
MIC in 1:1 combination with rifampicin, E. coli 058 ([14]; E. coli 058): ≤0.5 microgram/mL
MIC in 1:1 combination with rifampicin, E. coli 059 ([14]; E. coli 059): ≤0.5 microgram/mL
MIC in 1:1 combination with rifampicin, E. coli 060 ([14]; E. coli 060): ≤0.5 microgram/mL
MIC in 1:1 combination with rifampicin, E. coli ATCC 25922 ([14]; E. coli ATCC 25922): ≤0.5 microgram/mL
Mean log10 CFU reduction vs. control ([15]; 0.215 mg/kg/dose free base SC at 2, 6 and 10 h post-infection): 0.71 log10 CFU
Mean log10 CFU reduction vs. control ([15]; 0.86 mg/kg/dose free base SC at 2, 6 and 10 h post-infection): 2.40 log10 CFU
Mean log10 CFU reduction vs. control ([15]; 2.6 mg/kg/dose free base SC at 2, 6 and 10 h post-infection): 5.42 log10 CFU
Mean log10 CFU reduction vs. control ([15]; 8.6 mg/kg/dose free base SC at 2, 6 and 10 h post-infection): 6.05 log10 CFU
Mean log10 CFU reduction vs. control ([15]; 17.2 mg/kg/dose free base SC at 2, 6 and 10 h post-infection): 6.59 log10 CFU
MIC, P. aeruginosa ATCC 27853 ([7]; sole activity, Table 6C): 0.25 micrograms/mL
MIC, P. aeruginosa CCUG 59347 ([7]; sole activity, Table 6C): 0.25 micrograms/mL
MIC, E. coli ATCC 25922 ([8]; sole activity, Table 6C): 0.03 micrograms/mL
MIC, E. coli NCTC 13441 ([8]; sole activity, Table 6C): 0.06 micrograms/mL
MIC K. pneumoniae 062 [9]: 32 micrograms/mL
MIC K. pneumoniae 063 [9]: 8 micrograms/mL
MIC K. pneumoniae 064 [9]: 2 micrograms/mL
MIC K. pneumoniae 655 [9]: 4 micrograms/mL
